Experimental findings from ChEMBL document CHEMBL1150533, “Inhibitors of the adenovirus type 2 proteinase based on substrate-like tetrapeptide nitriles” (Bioorg Med Chem Lett, 1995) are described below.

Assay type in all cases: functional
Experiment [1] deals with Human adenovirus 2. In words: Compound was tested for inhibition of Adenovirus type 2 proteinase. As to conditions: Human mastadenovirus C.
Experiment [2] relates to Human adenovirus 2. In words: Inhibitory activity against Adenovirus type 2 proteinase. Also noted: concentration or dose not given beside the values.
Experiment [3] has as its system Human adenovirus 2. Description: Compound was tested for noncompetitive inhibition of Adenovirus type 2 proteinase.
Experiment [4] has as its system Human adenovirus 2. Description: Compound was tested for inhibition of Adenovirus type 2 proteinase; showed no inhibitory activity. Also noted: concentration or dose not given beside the values.
The test system of experiment [5] is Human adenovirus 2. In words: Compound was tested for inhibition of Adenovirus type 2 proteinase; Not very soluble and inactive at maximum soluble concentration.
In experiment [6] the test system is Human adenovirus 2. Description: Inhibitory activity against Adenovirus type 2 proteinase; showed no inhibitory activity.

SMILES strings stand for the structures. Peptide text beside a SMILES is read from it. * marks the point of attachment. Cbz = O=C(OCc1ccccc1)*; Boc = CC(C)(C)OC(=O)*; N(Me)OMe = CON(C)*; OtBu = CC(C)(C)O*; NMeEt = CCN(C)*

The compound `COC(CNC(=O)CNC(=O)[C@H](C)NC(=O)[C@H](CC(C)C)NC(=O)OC(C)(C)C)OC` came in with an IC50 with Human adenovirus 2 [1] of 1800 µM. In the experiment on Human adenovirus 2 [2], this compound showed an Inhibition of 59%.

In the experiment with Human adenovirus 2 [1], `COC(CNC(=O)CNC(=O)[C@H](C)NC(=O)[C@H](CC(C)C)NC(=O)OCc1ccccc1)OC` returned an IC50 of 400 µM. The affinity with Human adenovirus 2 [3], expressed as Ki, was 380 µM. In the experiment on Human adenovirus 2 [2], the Inhibition is given as 59%.

Take `CCOC(=O)CNC(=O)CNC(=O)[C@H](C)NC(=O)[C@H](CC(C)C)NC(=O)OCc1ccccc1` (Cbz-LAGG-OEt): the Inhibition with Human adenovirus 2 [2] was determined as 67%.

On to `CCN(C)C(=O)CNC(=O)CNC(=O)[C@H](C)NC(=O)[C@H](CC(C)C)NC(=O)OCc1ccccc1` (Cbz-LAGG-NMeEt), for which, in the experiment with Human adenovirus 2 [4], the Inhibition is recorded as 0%.

In turn, `CNC(=O)CNC(=O)CNC(=O)[C@H](C)NC(=O)[C@@H](N)CC(C)C` (H-LAGG-NHMe) showed an Inhibition in the experiment with Human adenovirus 2 [4] of 0%.

In the experiment with Human adenovirus 2 [1], `CC(C)C[C@H](NC(=O)C(F)(F)F)C(=O)N[C@@H](C)C(=O)NCC(=O)NCC#N` yielded an IC50 of 6900 µM. In the experiment on Human adenovirus 2 [2], this compound yielded an Inhibition of 50%.

In the experiment on Human adenovirus 2 [1], `CC(C)C[C@H](NC(=O)OCc1ccccc1)C(=O)N[C@@H](C)C(=O)NCC(=O)NCC#N` registered a concentration for half-maximal inhibition (IC50) of 10 µM. Further, the affinity with Human adenovirus 2 [3], expressed as Ki, was 16 µM. For the same compound, the Inhibition in the experiment with Human adenovirus 2 [2] came to 95%.

Take `CC(C)C[C@H](NC(=O)OCc1ccccc1)C(=O)N[C@@H](C)C(=O)NCC(=O)NCC(=O)N(C)C` (Cbz-LAGG-NMe2): in the experiment with Human adenovirus 2 [4], the Inhibition was 0%.

Compound `CNC(=O)CNC(=O)CNC(=O)[C@H](C)NC(=O)[C@H](CC(C)C)NC(=O)OCc1ccccc1` (Cbz-LAGG-NHMe) returned an Inhibition in the experiment on Human adenovirus 2 [5] of 0%.

Compound `CON(C)C(=O)CNC(=O)CNC(=O)[C@H](C)NC(=O)[C@H](CC(C)C)NC(=O)OCc1ccccc1` (Cbz-LAGG-{N(Me)OMe}) came in with an Inhibition in the experiment with Human adenovirus 2 [4] of 0%.

`C[C@H](NC(=O)C(F)(F)F)C(=O)NCC(=O)NCC#N`: the Inhibition with Human adenovirus 2 [2] is on record as 5%.

In the experiment on Human adenovirus 2 [4], `N#CCNC(=O)CNC(=O)C(F)(F)F` showed an Inhibition of 0%.

Consider `CC(C)C[C@H](NC(=O)OCc1ccccc1)C(=O)N[C@@H](C)C(=O)NCC(=O)NCC(N)=O` (Cbz-LAGG-NH2), for which the Inhibition in the experiment with Human adenovirus 2 [5] is listed as 0%.

The compound `CC(C)C[C@H](NC(=O)OCc1ccccc1)C(=O)N[C@@H](C)C(=O)NCC(=O)NCC(=O)O` (Cbz-LAGG-OH) gave an Inhibition in the experiment on Human adenovirus 2 [6] of 0%.

Regarding `CC(C)C[C@H](NC(=O)OC(C)(C)C)C(=O)N[C@@H](C)C(=O)NCC(=O)NCC(=O)OC(C)(C)C` (Boc-LAGG-OtBu), the Inhibition with Human adenovirus 2 [2] is 40%.

In the experiment on Human adenovirus 2 [4], `Cl.N#CCN` yielded an Inhibition of 0%.

In the experiment on Human adenovirus 2 [2], `COC(=O)CNC(=O)CNC(=O)[C@H](C)NC(=O)[C@H](CC(C)C)NC(=O)OCc1ccccc1` (Cbz-LAGG-OMe) returned an Inhibition of 72%.

As for `CC(C)C[C@H](N)C(=O)N[C@@H](C)C(=O)NCC(=O)NCC(N)=O` (H-LAGG-NH2), the Inhibition in the experiment on Human adenovirus 2 [4] is reported as 0%.

One may read the IC50 as the concentration that inhibits the measured activity by half. By Inhibition is commonly meant the drop in the measured response relative to a control, in per cent. In general, Ki refers to a measure of affinity in units of concentration, obtained from inhibition or displacement.
